Reference: US20070254843A1, “Methods for treating bone associated diseases by the use of methionine aminopeptidase-2 inhibitors” (Praecis Pharmaceuticals Incorporated, priority 2006, published 2007)

Columns and labels:
[1] = tested on: primary human OC precursors; test: Cytotoxicity in OC precursor culture; assay type: cell-based; conditions: concentrations up to 100 nM
Experimental: The instant invention features such an inhibitor. In order to investigate the activity of the MetAP-2 inhibitor on osteoclast (OC) differentiation and bone resorption in vitro, yet another cell type critically associated with R^A pathogenesis in an in vitro osteoclastogenesis model was utilized. Primary human OC precursors were cultured for 7 days in the presence of M-CSF and RANKL, and vehicle or increasing concentrations of the MetAP-2 inhibitor.

PG-PS-induced arthritis [2] = test: Rat model of PG-PS induced arthritis, paw swelling; assay type: in vivo; conditions: 1, 5 and 10 mg/kg p.o. qod, day 15 to 31, versus vehicle
Experimental: Rat model of PG-PS induced arthritis. Female Lewis rats (109-130 g) were received from Charles River Laboratories. Food and water were available ad libitum. PG-PS (25 mg/kg) was injected i.p. on day 1 and responding animals were randomized into treatment groups on day 14. Vehicle (11% HPCD in PBS), dex and the MetAP-2 inhibitor (1, 5, and 10 mg/kg) were administered p.o., qod. Paw swelling was monitored using a plethysmometer (Stoelting Co., Woodale, Ill.) according to instrument specifications. The volumes of the two hind paws were measured and averaged on day 1, 4, 6, 8, 10, 13, 15, 17, 20, 22, 23, 27, 29 and 31. Ten animals were assigned to each group except the vehicle group and animals which received no PG-PS, but 10 mg/kg MetAP-2 inhibitor (n=4).
Therapeutic dosing of animals administered the MetAP-2 inhibitor orally (p.o.) at 1, 5 and 10 mg/kg, every other day (qod), or vehicle started at day 15 after the chronic destructive phase of the disease was established and terminated on day 31.

PG-PS-induced arthritis [3] = test: Clinical (histopathological) assessment of PG-PS arthritis, joint histology score; assay type: in vivo, rat; conditions: for Total arthritis score / Bone Resorption score / Cartilage erosion score / Cell infiltration score / Pannus formation score: PG-PS arthritis; for Bone Resorption score / Cartilage erosion score / Cell infiltration score / Pannus formation score: score 0-4
Experimental: Clinical assessment of PG-PS arthritis. The histopathological evaluation was performed on the left and right hind joints of randomly selected animals from each study group by an independent histopathologist without knowledge of specific interventions. After completion of the study, the left and right hind ankles were removed, fixed in 10% buffered formalin, decalcified in 5% formic acid, paraffin-embedded, sectioned, and H&E stained for histological evaluation. A joint histology scoring system which grades the severity of 4 histopathological processes (cell infiltration, pannus formation, cartilage erosion, bone resorption), was used to quantify hind joint involvement in the PG-PS arthritis model (36). Dependent on the assigned score for each parameter (0=normal, 1=minimal, 2=mild, 3=moderate, 4=marked), the maximum total score per ankle is 16, and 32 per animal.
It was investigated whether the protective activity of the MetAP-2 inhibitor in this animal model of arthritis, which is characterized by aggressive synovitis, extensive pannus formation, cartilage degradation and focal bone erosion, was mediated through regression in the severity of all clinical indices tested, or whether this activity was targeting specific pathogenic processes.
A joint histology scoring system which grades the severity of 4 histopathological processes (cell infiltration, pannus formation, cartilage erosion, bone resorption) was used (O'Byrne (1991) Agents and Actions 134:239-241).

COMP = test: Serum COMP ELISA in rat PG-PS arthritis model; assay type: in vivo; conditions: 1, 5 and 10 mg/kg p.o. qod, after conclusion of the study
Experimental: ELISAs for cartilage and bone biochemical turnover markers. The amount of COMP in serum was measured with a competitive enzyme immunoassay (MD Biosciences, Inc) according to the manufacturer's instructions. The detection limit of this ELISA was 0.2 U/L. Helical peptide (amino acids 620 to 633) from the α1 chain of bone-specific human CTX-I was measured either in cell culture supernatants of primary human OC precursors cultured as described above, or in urine with a competitive enzyme immunoassay (Quidel Corporation). The detection limit of this ELISA was 8 μg/L. All CTX-I measurements in urine were corrected for urinary creatinine excretion for each sample to account for potential differences in renal clearance rates among the different study groups. Urinary creatinine was measured with a colorimetric assay (Quidel Corporation).
The destruction of articular joints is the radiographic hallmark of bone associated disease. Therefore, the activity of the MetAP-2 inhibitor on these destructive processes was assessed by measuring biochemical turnover markers of cartilage erosion and bone resorption. […] The amount of COMP in serum of animals treated therapeutically with the MetAP-2 inhibitor (1, 5, and 10 mg/kg, p.o., qod), or vehicle was measured after conclusion of the study.

HFLS-R^A = conditions: in vitro; cited from earlier work
HUVEC = conditions: 100 nM; cited from earlier work

## CO[C@@H]1[C@H](OC(=O)N[C@@H](C(N)=O)C(C)C)CC[C@]2(CO2)[C@H]1[C@@]1(C)O[C@@H]1CC=C(C)C [MetAP-2 inhibitor, (1-Carbamoyl-2-methyl-propyl)-carbamic acid-(3R,4S,5S,6R)-5-methoxy-4-[(2R,3R)-2-methyl-3-(3-methyl-but-2-enyl)-oxiranyl]-1-oxa-spiro[2,5]oct-6-yl ester]
[1]
  cytotoxicity: did not induce cytotoxicity
PG-PS-induced arthritis [2]
  joint swelling and inflammation, paw swelling of the hind limbs: significant amelioration
PG-PS-induced arthritis [3]; 1, 5, 10 mg/kg p.o. qod
  total arthritic score versus vehicle: significantly decreased
PG-PS-induced arthritis [3]; 1 mg/kg
  Total arthritis score: 7.00 ± 0.58^B
  Bone Resorption score: 2.05 ± 0.2
  Cartilage erosion score: 1.10 ± 0.12^B
  Cell infiltration score: 1.85 ± 0.15^A
  Pannus formation score: 2.00 ± 0.14^A
PG-PS-induced arthritis [3]; 5 mg/kg
  Total arthritis score: 7.60 ± 0.67^B
  Bone Resorption score: 1.80 ± 0.20^B
  Cartilage erosion score: 1.25 ± 0.18^B
  Cell infiltration score: 2.15 ± 0.18^A
  Pannus formation score: 2.40 ± 0.20^A
PG-PS-induced arthritis [3]; 10 mg/kg
  Total arthritis score: 5.83 ± 0.71^B
  Bone Resorption score: 2.00 ± 0.16^B
  Cartilage erosion score: 0.72 ± 0.14^B
  Cell infiltration score: 1.38 ± 0.31^A
  Pannus formation score: 1.72 ± 0.20^A
COMP
  systemic level of COMP in serum: significant decrease
HFLS-R^A
  inhibition of proliferation of HFLS-RA: potently inhibit
HUVEC
  induction of apoptosis in HUVEC: did not induce apoptosis
